Measured values published in patent US20250346943A1, “DEGRADER COMPOUNDS OF QSOX1 mRNA” (UNIVERSITY OF FLORIDA RESEARCH FOUNDATION, INCORPORATED, priority 2022, published 2025).

Tests used:
[1] = system: DNA and proteins in MDA-MB-231 cells; test: Cross-linking to RNA, DNA and proteins in live cells with clickable TAMRA azide; format: cell-based, human; settings: 16 h, TAMRA imaging
Protocol: Cross-linking to RNA, DNA, and Proteins in Live Cells with Clickable TAMRA Azide. MDA-MB-231 cells were seeded in 100 mm dishes and allowed to reach ˜80% confluency. The cells were then treated with […] of compound in growth medium and incubated for 16 h. Cells were washed with 1×DPBS and irradiated with UV light for 10 min. Total RNA was harvested using a Zymo Quick-RNA Miniprep Kit per the manufacturer's protocol with DNase and proteinase treatment. Total DNA was harvested using a Zymo Quick-DNA Miniprep Kit per the manufacturer's protocol with RNase and proteinase treatment. Total protein was harvested by using Mammalian Protein Extraction Reagent (M-PER, Thermo Scientific) per the manufacturer's protocol with RNase and DNase treatment. Each sample (4 μg for RNA or DNA, 25 μg for proteins) was then incubated in a “click reaction mixture” with TAMRA azide as described in In Vitro Screening of Functionalized Compounds with Clickable TAMRA Azide. DNA and RNA samples were separated by using a 1.0% (w/v) and 1.5% (w/v) agarose gel in TBE buffer, respectively. Protein samples were loaded to 10% SDS-polyacrylamide gel. All samples were first imaged with TAMRA channel by using a Typhoon FLA 9500 variable mode imager (GE Healthcare Life Sciences). […]

human transcriptome = test: Chem-CLIP-Map-Seq transcriptome-wide target profiling in live MDA-MB-231 cells; format: cell-based; settings: 20 μM, 16 h
Protocol: Additional studies were performed in live MDA-MB-231 cells to profile the cellular targets as well as the small molecule binding site within them, via Chem-CLIP-Map-Seq,^21 which had not previously been applied transcriptome-wide. After treatment (20 μM; 16 h) and cross-linking, total RNA was harvested and fragmented prior to pull-down (FIG. 2A). Random fragmentation was completed first to: 1) reduce sequence bias in library preparation, 2) reduce background signal in the RNA-seq analysis; and 3) allow for only the regions bound by the small molecules to be pulled down rather than the entire transcript, identifying both the target and the binding site within it. In parallel, a control diazirine probe that lacks an RNA-binding functionality (FIG. 2B) was used to identify targets that non-specifically react with the cross-linking moiety, where cross-linking is not driven by the RNA-binding elements.
Genrich uses a null model with a log-normal distribution to calculate p values by comparing sequencing runs of the same RNA sample before and after pull-down.
Chemical-Cross-linking and Isolation by Pull-down (Chem-CLIP) in Live Cells. MDA-MB-231 cells were seeded in 60 mm dishes and allowed to reach ˜80% confluency. The cells were then treated with 20 μM of compound in growth medium and incubated for 16 h. Cells were washed with 1×DPBS and irradiated with UV light for 10 min. Total RNA was harvested using a Zymo Quick-RNA Miniprep Kit per the manufacturer's protocol with DNase treatment. Total RNA was chemically fragmented by using an NEBNext Magnesium RNA Fragmentation Module (E6150S) per manufacturer's protocol to achieve final lengths between 100-150 nucleotides Pull-down of cross-linked RNAs was performed by adding 10 μg of total RNA to 100 μL of azide-disulfide agarose beads (Click Chemistry Tools, 1238-2) pre-washed with 25 mM HEPES, pH 7.0. The click reaction and pull-down were completed as described in “In Vitro Chemical-Crosslinking and Isolation by Pull-down (Chem-CLIP) with Fluorescently Labeled RNA”. The pulled down RNA was purified by RNA CleanXP beads (Beckman, A66514) per manufacturer's protocol.
RNA-seq Library Preparation and Data Analysis. The quality of the pulled down RNA was analyzed by using an Agilent 2100 Bioanalyzer RNA nanochip as well as to confirm fragment lengths. RNA concentration was quantified by Qubit 2.0 Fluorometer (Invitrogen). The input RNA (200 ng) was depleted of ribosomal RNA with NEBNext rRNA Depletion Module (E6310) according to manufacturer's recommendations. Library preparation was performed with NEBNext Ultra II Directional RNA kit (E7760) per manufacturer's protocols. Briefly, the rRNA-depleted samples were reverse transcribed with random hexamer primers to generate first strand cDNA, followed by second strand synthesis with dUTP instead of dTTP. The cDNA was end repaired and adenylated at their 3′ ends, followed by adaptor ligation. The strand information of the RNA was preserved by using USER enzyme (Uracil-specific excision reagent) to degrade the second strand. The cDNA was then PCR amplified with barcoded Illumina-compatible primers to generate the final libraries. These libraries were loaded into a NextSeq 500 v2.5 flow cell and sequenced with 2×40 bp paired-end chemistry. All fastq files were aligned to the human genome by STAR.^9 The output bam files were processed by Genrich (v0.6.1, available at https://github.com/jsh58/Genrich) for peak calling to identify regions of enrichment (p<0.001 and False Discovery Rate=1%). Fold enrichment was calculated by Deeptool^10 and visualized by IGV browser.^11 A minimum read count of 5 and a minimum fold enrichment of 1.5 were applied filter to filter out low-confidence peaks.

Structure (SMILES): C#CCCC1(CCC(=O)N(C)[C@H]2CC[C@@H](c3ccc(Cl)c(Cl)c3)c3ccccc32)N=N1 [Compound F1]
- enrichment of protein or DNA targets compared to the control probe [1]: No significant enrichment
- largest enrichments (two transcripts) (human transcriptome): > 12 fold
- number of transcripts enriched after eliminating transcripts also bound by the control diazirine (human transcriptome): 51
